Like-named read-outs stand apart in the source and are kept apart here.
How the values were obtained:
[1] = biological target: T1, 5-HT1B (Rattus norvegicus, UniProt P28564); assay: [3H]GR125743 receptor binding in rat cortex; parameters: species or system Wistar rat
T1 construct: from tissue; host or cells: Wistar rat cortex membranes
Protocol: (§1) The homogenate was pressure filtered through muslin. Filtrate was centrifuged at 1000 g for 10 min. […] Protein content was determined by Bradford's method.

[2] = tested on: lipid peroxidation in rat brain homogenate; assay: lipid peroxidation initiated by Fe2+-ascorbic acid in rat brain homogenates (TBARS); assay type: biochemical; conditions: rat brain homogenates; read-out: IC50 inhibiting lipid peroxidation initiated by Fe2+-ascorbic acid
Protocol: Rat brain homogenate was made in 0.9% saline containing 10 mg tissue/ml. The rates of membrane lipid peroxidation were measured by the formation of thiobarbituric acid (TBA)-reactive substance (TBARS). Rat brain homogenates (1 ml) were incubated at 37° C. for 5 min with 10 μl of test compound or vehicle. […] After 30 min of incubation, the reaction was stopped by adding 0.1 ml of 0.2% BHT. TBA reagent was then added and the mixture was heated for 30 min in a boiling water bath. […] The amount of TBARS was quantified using the linear regression obtained from malondialdehyde (MDA) standards.

[3] = tested on: phenylephrine-induced contractions in rat thoracic aorta; assay: LPS-induced vascular hyporeactivity: phenylephrine-induced contractions in rat thoracic aorta; assay type: in vivo, Wistar rat
[4] = LPS-induced blood glucose changes; assay type: in vivo, rat; conditions: for LPS-induced early hyperglycemia: at 1 and 3 hours; for LPS-induced hypoglycemia: at 5 hours
Protocol: (§2) In brief, Wistar rats weighing 250-300 g were anesthetized with pentobarbital sodium (50 mg kg^−1, i.p.). Following tracheal cannulation, systemic arterial BP and HR were recorded from the femoral artery by a pressure transducer (model P10EZ; Spectramed, Oxnard, Calif., U.S.A.) connected to a recorder (GOULD, Valley View, Ohio, Model P50). Body temperature was maintained at 37° C. by an electric heating pad. A femoral vein was cannulated for intravenous injection of drugs and LPS (10 mg kg^−1).
(§3) Blood was collected from venous cannula, injected into ice-cold heparinized Eppendorf tubes and centrifuged at 1500 rpm for 10 min at 4° C. Plasma supernatant was stored at −70° C. until analyzed. Solid phase enzyme immunoassay that specifically detects murine IL-1β, IL-6, IFN-γ and TNF-α was used with a detection limit of >10 pg/ml (Endogen, U.S.A). Pre-treatment with KMST and other agents was performed 15 minutes before intravenous injection of LPS. Blood was collected from venous cannula. Blood glucose was measured with a glucose test strip (Glucotide, Bayer, U.S.A) at 1, 3 and 5 hours.

[5] = tested on: IL-1β, IL-6, IFN-γ and TNF-α; assay: LPS-induced plasma cytokine immunoreactivity; assay type: in vivo, rat
Protocol: as §2, §3

[6] = biological target: α1 receptors; assay: [3H]prazosin receptor binding in rat cortex; parameters: species or system Wistar rat
Protocol: as §1

[7] = biological target: α2 receptors; assay: [3H]yohimbine receptor binding in rat cortex; parameters: species or system Wistar rat
Protocol: as §1

[8] = biological target: T2, β1 receptors (Rattus norvegicus, UniProt P18090); assay: [3H]CGP-12177 receptor binding in rat ventricle; parameters: species or system Wistar rat; conditions: [3H]CGP-12177, rat ventricle
T2 construct: from tissue; host or cells: Wistar rat heart (ventricle) membranes
T2 sequence (P18090 whole entry): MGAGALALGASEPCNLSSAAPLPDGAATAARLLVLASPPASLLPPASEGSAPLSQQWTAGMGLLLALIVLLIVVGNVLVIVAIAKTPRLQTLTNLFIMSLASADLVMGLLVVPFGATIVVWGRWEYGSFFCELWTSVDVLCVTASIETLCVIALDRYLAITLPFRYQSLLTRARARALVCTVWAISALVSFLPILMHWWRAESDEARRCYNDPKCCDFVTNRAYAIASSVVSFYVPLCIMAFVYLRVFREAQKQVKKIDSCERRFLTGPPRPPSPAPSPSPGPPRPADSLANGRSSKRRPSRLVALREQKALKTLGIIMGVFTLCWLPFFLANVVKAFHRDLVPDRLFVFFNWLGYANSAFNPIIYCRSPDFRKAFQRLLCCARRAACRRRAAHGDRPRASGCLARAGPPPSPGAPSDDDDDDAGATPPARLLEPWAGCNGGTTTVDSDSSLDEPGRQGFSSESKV
Protocol: as §1

[9] = biological target: T3, β2 receptors (Rattus norvegicus, UniProt P10608); assay: [3H]CGP-12177 receptor binding in rat lung; parameters: species or system Wistar rat; conditions: [3H]CGP-12177, rat lung
T3 construct: from tissue; host or cells: Wistar rat lung membranes
T3 sequence (P10608 whole entry): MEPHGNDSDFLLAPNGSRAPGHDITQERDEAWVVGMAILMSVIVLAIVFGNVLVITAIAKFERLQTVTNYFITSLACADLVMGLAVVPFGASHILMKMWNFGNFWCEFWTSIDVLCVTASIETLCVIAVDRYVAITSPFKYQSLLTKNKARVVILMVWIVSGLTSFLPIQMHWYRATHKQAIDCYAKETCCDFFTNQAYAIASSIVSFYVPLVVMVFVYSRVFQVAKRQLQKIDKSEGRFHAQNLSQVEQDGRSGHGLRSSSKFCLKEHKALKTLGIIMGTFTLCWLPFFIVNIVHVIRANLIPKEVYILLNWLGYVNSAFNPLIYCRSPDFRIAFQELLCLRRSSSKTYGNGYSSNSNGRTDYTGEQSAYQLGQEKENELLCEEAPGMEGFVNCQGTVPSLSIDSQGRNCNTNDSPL
Protocol: as §1

[10] = biological target: M2; assay: M2 receptor binding; parameters: species or system guinea pig
[11] = tested on: serotonin-induced human platelet aggregation; assay: serotonin-induced human platelet aggregation; assay type: cell-based
Protocol: (§4) Venous blood from human volunteer donors was collected in 10 ml Monovette containing 1 ml citrate solution (0.106M trisodium citrate; Sarstedt, Nümbrecht, Germany) and centrifuged (400 g, 10 min, 20° C.). […] After centrifugation (10 min, 2000 g, 20° C.), the platelet pellet was resuspended in wishing buffer (113 mM NaCl, 4 mM Na2HPO4, 24 mM NaH2PO4, 4 mM KCl, 0.2 mM EGTA(Ethylene glycol-bis-(2-aminoethyl ether) N,N,N′-tetraacetic acid), 0.1% (wt/vol) glucose, pH 6.0) and recentrifuged (10 min, 2000 g, 20° C.). The washed platelets were resuspended in incubation buffer (134 mM NaCl, 12 mM NaHCO3, 2.9 mM KCl, 0.34 mM NaH2PO4, 5 mM HEPES (N-(2-hydroxyethyl) piperazine-N′-(2-ethanesulfonic acid)), 5 mM glucose, pH7.4), cells were counted in a Sysmex hematology analyzer (Sysmex, CDA-500, Japan) and adjusted to a final concentration of 2×10^8 platelets/ml.
(§5) The aggregation of the platelets in platelet-rich plasma (PRP) was measured as a change in light absorbance by a Payton dual-channel aggregometer (NBS, Hema tracer, Japan). PRP (240 μL) was stirred (700 rpm) at 37° C. for 1 min, and 5 μL epinephrine (final concentration 5 μM), serotonin (final concentration 5 μM) was added. After which the rate of primary aggregation (1/min) and maximum aggregation (%) at 5 min were recorded. To study the effects of compounds on epinephrine or serotonin-induced aggregation, PRP was incubated with 5 μL of compounds at various concentrations for 1 min before epinephrine or serotonin was added. IC50 values given were calculated from the secondary aggregation data.

[12] = tested on: epinephrine-induced human platelet aggregation; assay: epinephrine-induced human platelet aggregation; assay type: cell-based; conditions: epinephrine 5 μM, PRP
Protocol: as §4, §5

[13] = biological target: T4, 5-HT1A (Rattus norvegicus, UniProt P19327); assay: [3H]WAY100635 receptor binding
T4 sequence (P19327 1-422): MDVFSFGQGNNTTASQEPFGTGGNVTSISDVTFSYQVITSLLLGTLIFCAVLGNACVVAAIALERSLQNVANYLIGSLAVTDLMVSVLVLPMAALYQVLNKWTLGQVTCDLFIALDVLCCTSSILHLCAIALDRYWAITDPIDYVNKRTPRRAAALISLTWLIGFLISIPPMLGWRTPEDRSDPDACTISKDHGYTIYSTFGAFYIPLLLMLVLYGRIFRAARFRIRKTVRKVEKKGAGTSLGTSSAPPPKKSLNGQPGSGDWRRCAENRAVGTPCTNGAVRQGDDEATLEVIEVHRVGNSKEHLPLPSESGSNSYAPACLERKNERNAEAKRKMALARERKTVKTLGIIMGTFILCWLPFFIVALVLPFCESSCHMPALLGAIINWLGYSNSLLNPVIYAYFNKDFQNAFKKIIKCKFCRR

[14] = biological target: 5-HT2A receptor (Rattus norvegicus, UniProt P14842); assay: [3H]ketanserin receptor binding in rat cortex; parameters: from tissue; host or cells: Wistar rat cortex membranes; species or system Wistar rat
5-HT2A receptor, sequence (P14842 whole entry): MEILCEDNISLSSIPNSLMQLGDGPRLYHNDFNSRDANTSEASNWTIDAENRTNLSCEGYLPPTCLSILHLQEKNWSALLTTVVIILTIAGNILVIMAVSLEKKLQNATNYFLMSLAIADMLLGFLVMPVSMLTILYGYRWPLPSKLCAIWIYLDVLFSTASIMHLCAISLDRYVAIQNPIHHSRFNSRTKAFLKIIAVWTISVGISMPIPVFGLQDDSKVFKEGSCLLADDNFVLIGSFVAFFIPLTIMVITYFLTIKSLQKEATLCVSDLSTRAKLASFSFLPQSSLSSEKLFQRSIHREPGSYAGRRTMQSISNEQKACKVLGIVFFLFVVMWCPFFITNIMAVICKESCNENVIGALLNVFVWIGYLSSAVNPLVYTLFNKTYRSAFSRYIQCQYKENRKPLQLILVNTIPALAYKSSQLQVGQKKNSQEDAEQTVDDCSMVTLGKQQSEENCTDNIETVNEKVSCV
Protocol: as §1

[15] = tested on: α1-adrenergic receptor; assay: noradrenaline-induced contraction in isolated rat thoracic aorta (pA2); parameters: species or system Wistar rat; conditions: Schild plot, mean ± SEM of eight
Protocol: Clonidine, noradrenaline and serotonin (10^−8˜10^−4 M) were added to the bath to induce contractions after pretreatment with KMST for 15 min.

[16] = tested on: anesthetized rats; assay: intra-cisternal injection and NTS microinjection, BP and HR; assay type: in vivo, rat; conditions: central administration
Protocol: Intra-cisternal injections of KMST (0.3, 0.03 μmol), yohimbine [0.03 μmol), and clonidine (38 pmol), were performed in rats as described by Duan et al (1987). Briefly, rats weighing 250-300 g were anaesthetized with pentobarbital sodium (50 mg kg^−1, i.p.) and mounted in a David-Kopf stereotaxic instrument (Yeh J L. et al., Brain. Res. Bull., 30:641-648, 1993). The calvarium was exposed and a 1 mm diameter trephine hole was drilled 1.8 mm lateral to the coronary and 1.5 mm posterior to the sagittal sutures. A cannula (0.7 mm O.D.) connected to a Hamilton syringe (RN-705, 5051) by PE-50 was advanced 4.7 mm into the brain using the electrode carrier.
Rats were anesthetized and placed in a David-Kopf stereotaxic instrument. The cerebellum was exposed after removing the skin and occipital bone. The NTS coordinates were (reference to lambda) P 5-6 mm, L/R 0.5-1 mm, depth 6-7.5 mm (Wu et al., 1994). NTS injection sites were confirmed by decreasing BP and HR following micro-injection of 1% L-glutamate. […] Pre-treatment with clonidine was performed 15 min before administration of test agents. At the end of experiments, the animals were sacrificed. The brain was removed and sectioned for histological confirmation of the drug application site.

[17] = tested on: anesthetized rats; assay: LPS-induced hypotension; assay type: in vivo, Wistar rat; conditions: pretreatment, intravenous LPS
Protocol: as §2

[18] = agent given after LPS injection (1 hr), pD2 to phenylephrine
[19] = agent given before LPS injection (30 min), pD2 to phenylephrine
[20] = after LPS injection (1 hr), 15 mg kg-1
[21] = before LPS injection (30 min), 1 mg kg-1
[22] = before LPS injection (30 min), 15 mg kg-1
[23] = [3H]GR125743 (5-HT1B/1D), rat cortex, read-out: Ki 5-HT1B
[24] = serotonin 5 μM, PRP, read-out: IC50 serotonin-induced human platelet aggregation
[25] = read-out: Ki 5-HT1A, [3H]WAY100635

T1 sequence (P28564 whole entry): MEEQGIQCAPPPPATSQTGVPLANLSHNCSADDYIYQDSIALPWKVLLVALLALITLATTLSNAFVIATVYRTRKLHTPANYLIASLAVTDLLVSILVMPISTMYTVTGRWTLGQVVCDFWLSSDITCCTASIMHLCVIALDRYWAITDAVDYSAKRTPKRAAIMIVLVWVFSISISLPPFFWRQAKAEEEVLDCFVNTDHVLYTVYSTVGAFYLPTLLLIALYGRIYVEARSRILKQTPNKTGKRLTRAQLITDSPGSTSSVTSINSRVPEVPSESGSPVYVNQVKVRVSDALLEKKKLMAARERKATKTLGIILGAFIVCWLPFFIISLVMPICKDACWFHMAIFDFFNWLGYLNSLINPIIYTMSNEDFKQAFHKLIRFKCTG

CCCCCCCCCOc1ccc2[nH]cc(CCN)c2c1 [5-nonyloxytryptamine, reference compound]
Ki [1]: 0.00581 µM

Cl.N=C(N)NN [Aminoguanidine, aminoguanidine HCl]
IC50 [2]: > 100 µM
pD2 at 3rd hr [3, 18]: 6.48 ± 0.13
pD2 at 5th hr [3, 18]: 5.81 ± 0.14
pD2 at 3rd hr [3, 19]: 6.81 ± 0.17
pD2 at 5th hr [3, 19]: 5.44 ± 0.31
LPS-induced early hyperglycemia [4]: inhibited
LPS-induced hypoglycemia [4]: did not affect

O=C1O[C@H]([C@@H](O)CO)C(O)=C1O [Ascorbic acid]
IC50 [2]: 7.15 ± 0.14 µM
pD2 at 3rd hr [3, 20]: 6.64 ± 0.16
pD2 at 5th hr [3, 20]: 5.21 ± 0.12
pD2 at 3rd hr [3, 21]: 7.07 ± 0.25
pD2 at 5th hr [3, 21]: 5.04 ± 0.28
pD2 at 3rd hr [3, 22]: 6.71 ± 0.13
pD2 at 5th hr [3, 22]: 5.11 ± 0.22
LPS-induced production of IFN-γ ([5]; 1 hour after LPS administration): insignificantly enhanced
LPS-induced early hyperglycemia [4]: inhibited
LPS-induced hypoglycemia [4]: did not affect

CC(C)NCC(O)COc1ccc(CC(N)=O)cc1 (centres unmarked) [Atenolol]
Ki [6]: > 10 µM
Ki [7]: > 10 µM

CC=Cc1ccc(OCC(O)CN2CCN(c3ccc(Cl)cc3)CC2)c(OC)c1 (centres unmarked) [Compound 2]
Ki [1, 23]: 1.09 µM
Ki [6]: 0.047 µM
Ki [7]: 1.97 µM
Ki [8]: 0.106 µM
Ki [9]: > 10 µM
Ki [10]: > 10 µM
IC50 [11, 24]: 0.00473 µM
IC50 [12]: 3.9 µM
Ki [13, 25]: > 10 µM
Ki [14]: 0.00299 µM

CC=Cc1ccc(OCCCN2CCN(c3cccc(Cl)c3)CC2)c(OC)c1 [Compound 3]
Ki [1, 23]: 0.77 µM
Ki [6]: 0.142 µM
Ki [7]: 9.29 µM
Ki [8]: 0.113 µM
Ki [9]: > 10 µM
Ki [10]: > 10 µM
IC50 [11, 24]: 0.53 µM
IC50 [12]: 0.00438 µM
Ki [13, 25]: > 10 µM
Ki [14]: 0.00311 µM

NCCc1c[nH]c2ccc(O)cc12 [Compound 5-HT, 5-Hydroxytryptamine]
Ki [6]: > 10 µM
Ki [7]: > 10 µM

O=C(c1ccc(F)cc1)C1CCN(CCn2c(=O)[nH]c3ccccc3c2=O)CC1 [Ketanserin, reference compound]
α1 pA2 value [15]: 7.74 ± 0.32
Ki [1, 23]: > 10 µM
Ki [6]: 0.0158 µM
Ki [7]: 2.27 µM
IC50 ([11]; Homo sapiens, Platelet, read-out: IC50 serotonin-induced platelet aggregation): 0.01 µM
Ki [13]: > 10 µM

CC(CCc1ccccc1)NCC(O)c1ccc(O)c(C(N)=O)c1 (centres unmarked) [Labetalol, reference compound]
Ki [6]: 0.0525 µM
Ki [8]: 0.00417 µM

O=c1n(CCCN2CCN(c3cccc(Cl)c3)CC2)nc2ccccn12 [Trazodone]
pD2 at 3rd hr [3, 18]: 6.01 ± 0.09
pD2 at 5th hr [3, 18]: 5.04 ± 0.11
pD2 at 3rd hr [3, 19]: 6.29 ± 0.21
pD2 at 5th hr [3, 19]: 3.99 ± 0.16
BP and HR after intra-cisternal injection and NTS microinjection [16]: increased BP and HR
aortic hyporeactivity and second prolonged hypotensive reaction induced by LPS [17]: inhibited
LPS-induced elevations of IL-1β, IL-6, IFN-γ and TNF-α levels ([5]; 1 mg kg−1, i.v., pretreatment): reduced only IL-1β and TNF-α

Isoeugenodilol [reference compound]
Ki [6]: 0.0389 µM
Ki [7]: 9.7 µM
Ki [8]: 0.0436 µM
Ki [9]: 0.0537 µM
Ki [14]: 1.01 µM

Isoeugenolol [reference compound]
Ki [6]: > 10 µM
Ki [7]: > 10 µM
Ki [8]: 0.209 µM
Ki [9]: 6.86 µM
Ki [14]: 0.585 µM

Methsergide [reference compound]
Ki [1, 23]: > 10 µM
Ki [6]: > 10 µM
Ki [7]: 2.43 µM
Ki [13, 25]: > 10 µM
